Assay results taken from PubChem BioAssay AID2060603 (Molecular Pharmacology Branch, DTP, NCI, 2025).

Test system: 422866-222-R5-J1-PDC spheroid viability
Test: Anticancer human tumor 422866-222-R5-J1-PDC patient-derived pancreatic adenocarcinoma cell line growth inhibition [CLK]
Conditions: spheroids with HUVEC and MSC; for IC50: curve of first compound; for viability, T/C: stronger effect = lower value
In short: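 Patient-derived tumor cells grown as complex spheroids with HUVEC endothelial cells and mesenchymal stem cells, treated with drug combinations. Concentrations descend in half-log steps from near clinical Cmax, or from 10 microM if Cmax unknown.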

[1] = second compound 0.0316 µM, first compound 0.0316 µM
[2] = second compound 0.0316 µM, first compound 0.1 µM
[3] = second compound 0.0316 µM, first compound 0.316 µM
[4] = second compound 0.0316 µM, first compound 1 µM
[5] = second compound 0.0316 µM, first compound 3.16 µM
[6] = second compound 0.0316 µM, first compound 10 µM
[7] = second compound 0.1 µM, first compound 0.0316 µM
[8] = second compound 0.1 µM, first compound 0.1 µM
[9] = second compound 0.1 µM, first compound 0.316 µM
[10] = second compound 0.1 µM, first compound 1 µM
[11] = second compound 0.1 µM, first compound 3.16 µM
[12] = second compound 0.1 µM, first compound 10 µM
[13] = second compound 0.316 µM, first compound 0.0316 µM
[14] = second compound 0.316 µM, first compound 0.1 µM
[15] = second compound 0.316 µM, first compound 0.316 µM
[16] = second compound 0.316 µM, first compound 1 µM
[17] = second compound 0.316 µM, first compound 3.16 µM
[18] = second compound 0.316 µM, first compound 10 µM
[19] = second compound 1 µM, first compound 0.0316 µM
[20] = second compound 1 µM, first compound 0.1 µM
[21] = second compound 1 µM, first compound 0.316 µM
[22] = second compound 1 µM, first compound 1 µM
[23] = second compound 1 µM, first compound 3.16 µM
[24] = second compound 1 µM, first compound 10 µM
[25] = second compound 3.16 µM, first compound 0.0316 µM
[26] = second compound 3.16 µM, first compound 0.1 µM
[27] = second compound 3.16 µM, first compound 0.316 µM
[28] = second compound 3.16 µM, first compound 1 µM
[29] = second compound 3.16 µM, first compound 3.16 µM
[30] = second compound 3.16 µM, first compound 10 µM
[31] = second compound 10 µM, first compound 0.0316 µM
[32] = second compound 10 µM, first compound 0.1 µM
[33] = second compound 10 µM, first compound 0.316 µM
[34] = second compound 10 µM, first compound 1 µM
[35] = second compound 10 µM, first compound 3.16 µM
[36] = second compound 10 µM, first compound 10 µM
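Further: spheroids exposed to agents for seven days before readout.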

CC(=O)O[C@H]1C(=O)[C@@]2(C)[C@H]([C@H](OC(=O)c3ccccc3)[C@]3(O)C[C@H](OC(=O)[C@H](O)[C@@H](NC(=O)c4ccccc4)c4ccccc4)C(C)=C1C3(C)C)[C@]1(OC(C)=O)CO[C@@H]1C[C@@H]2O + CNC(=O)c1ccc(Nc2nc(OC3CCCC3)c3c(-c4ccc5nc(C)oc5c4)c[nH]c3n2)c(OC)c1
IC50 (second compound 0.0316 µM): > 10000 nM | IC50 (second compound 0.1 µM): > 10000 nM | IC50 (second compound 0.316 µM): > 10000 nM | IC50 (second compound 1 µM): 31.6 nM | IC50 (second compound 3.16 µM): > 10000 nM | IC50 (second compound 10 µM): > 10000 nM | viability, T/C [1]: 68.8% | viability, T/C [2]: 61.1% | viability, T/C [3]: 65.3% | viability, T/C [4]: 83.3% | viability, T/C [5]: 102% | viability, T/C [6]: 100% | viability, T/C [7]: 61% | viability, T/C [8]: 67.9% | viability, T/C [9]: 63% | viability, T/C [10]: 74.8% | viability, T/C [11]: 78.5% | viability, T/C [12]: 98.1% | viability, T/C [13]: 59.4% | viability, T/C [14]: 68% | viability, T/C [15]: 62.2% | viability, T/C [16]: 61.4% | viability, T/C [17]: 65.5% | viability, T/C [18]: 78.7% | viability, T/C [19]: 56.5% | viability, T/C [20]: 48.4% | viability, T/C [21]: 52.8% | viability, T/C [22]: 48.5% | viability, T/C [23]: 66.5% | viability, T/C [24]: 73% | viability, T/C [25]: 56.5% | viability, T/C [26]: 60.8% | viability, T/C [27]: 52.3% | viability, T/C [28]: 57.9% | viability, T/C [29]: 70.5% | viability, T/C [30]: 79% | viability, T/C [31]: 48.9% | viability, T/C [32]: 60.1% | viability, T/C [33]: 61.4% | viability, T/C [34]: 53.9% | viability, T/C [35]: 65.4% | viability, T/C [36]: 70.5%

COc1ccc([C@@H](O)c2cc(-c3ncnc4cc(N5CCOCC5)ccc34)c(F)cc2Cl)nn1 + CNC(=O)c1ccc(Nc2nc(OC3CCCC3)c3c(-c4ccc5nc(C)oc5c4)c[nH]c3n2)c(OC)c1
IC50 (second compound 0.0316 µM): 2890 nM | IC50 (second compound 0.1 µM): 2710 nM | IC50 (second compound 0.316 µM): 775 nM | IC50 (second compound 1 µM): 617 nM | IC50 (second compound 3.16 µM): 548 nM | IC50 (second compound 10 µM): 1300 nM | viability, T/C [1]: 113% | viability, T/C [2]: 91.6% | viability, T/C [3]: 77.5% | viability, T/C [4]: 70.2% | viability, T/C [5]: 45.1% | viability, T/C [6]: 35.2% | viability, T/C [7]: 106% | viability, T/C [8]: 81.9% | viability, T/C [9]: 84.1% | viability, T/C [10]: 62.5% | viability, T/C [11]: 45.4% | viability, T/C [12]: 34.5% | viability, T/C [13]: 69.7% | viability, T/C [14]: 63.1% | viability, T/C [15]: 73.1% | viability, T/C [16]: 44.7% | viability, T/C [17]: 44.4% | viability, T/C [18]: 32.9% | viability, T/C [19]: 63.3% | viability, T/C [20]: 58% | viability, T/C [21]: 57% | viability, T/C [22]: 45.4% | viability, T/C [23]: 38.3% | viability, T/C [24]: 37.9% | viability, T/C [25]: 54.5% | viability, T/C [26]: 66.2% | viability, T/C [27]: 43.5% | viability, T/C [28]: 47.8% | viability, T/C [29]: 45.9% | viability, T/C [30]: 37.7% | viability, T/C [31]: 48.5% | viability, T/C [32]: 63.6% | viability, T/C [33]: 56.8% | viability, T/C [34]: 44.1% | viability, T/C [35]: 48.9% | viability, T/C [36]: 36.6%

COc1cccc2c1C(=O)c1c(O)c3c(c(O)c1C2=O)CC(O)(C(=O)CO)CC3OC1CC(N)C(O)C(C)O1 (stereo unspecified) + CNC(=O)c1ccc(Nc2nc(OC3CCCC3)c3c(-c4ccc5nc(C)oc5c4)c[nH]c3n2)c(OC)c1
IC50 (second compound 0.0316 µM): 160 nM | IC50 (second compound 0.1 µM): 106 nM | IC50 (second compound 0.316 µM): 85.5 nM | IC50 (second compound 1 µM): 79.1 nM | IC50 (second compound 3.16 µM): 109 nM | IC50 (second compound 10 µM): < 31.6 nM | viability, T/C [1]: 65% | viability, T/C [2]: 60.4% | viability, T/C [3]: 34.8% | viability, T/C [4]: 28.6% | viability, T/C [5]: 30.4% | viability, T/C [6]: 27.8% | viability, T/C [7]: 66.2% | viability, T/C [8]: 50.3% | viability, T/C [9]: 37.8% | viability, T/C [10]: 28.2% | viability, T/C [11]: 30.9% | viability, T/C [12]: 28.6% | viability, T/C [13]: 67.6% | viability, T/C [14]: 47.1% | viability, T/C [15]: 38.7% | viability, T/C [16]: 36.6% | viability, T/C [17]: 35.2% | viability, T/C [18]: 33.4% | viability, T/C [19]: 60.1% | viability, T/C [20]: 47.5% | viability, T/C [21]: 31.1% | viability, T/C [22]: 32.2% | viability, T/C [23]: 31.2% | viability, T/C [24]: 30.5% | viability, T/C [25]: 48.6% | viability, T/C [26]: 53.3% | viability, T/C [27]: 39% | viability, T/C [28]: 30.1% | viability, T/C [29]: 34.3% | viability, T/C [30]: 35.9% | viability, T/C [31]: 48.9% | viability, T/C [32]: 41.1% | viability, T/C [33]: 35.2% | viability, T/C [34]: 31.1% | viability, T/C [35]: 32% | viability, T/C [36]: 48.9%
